The structures appear in SMILES notation.

The first experiment has as its system parasites (ring stage, in human red blood cell culture). The experiment can be described thus: Parasite LDH growth assay (antiparasite potency, Parasite Assay). It counts as cell-based, Plasmodium falciparum. Particulars: 0.7% rings, 2% haematocrit, 72 hours at 37° C., LDH readout of parasite growth. How it is done: Assessing Antiparasite Potency in a Parasite LDH Growth Assay (Parasite Assay)
The parasite stock was maintained at 4% haematocrit in RPMI-Hepes media buffered with sodium bicarbonate and supplemented with 5% heat inactivated human serum and 0.5% albumax.
On the day of assay set up, a blood smear of the parasite culture was Giemsa stained and counted. The parasitemia was adjusted to 0.7% rings and the haematocrit was diluted to 2% in RPMI-Hepes media buffered with sodium bicarbonate and supplemented with 5% heat inactivated human serum and 0.5% albumax. 30 ul of diluted parasites are then added into 10 ul of media+compound in pre-prepared Greiner TC assay plates. Parasite assay plates were placed in gassed humidified boxes in single layer and allowed to incubate at 37° C. for 72 hours. After 72 hours growth, assay plates are sealed with parafilm and frozen flat, in single file at −80° C. overnight. On the following day, assay plates are allowed to thaw at room temperature for 4 hours to which an LDH assay is performed to measure parasite growth.
As to `CCC1(CC)CC(=O)N([C@H]2c3cc(C(=O)N[C@@H]4c5ccccc5C[C@H]4O)ccc3OCC2OC)C(=N)N1` (stereo partly drawn) [Example 72A, (3R,4S)-4-(4,4-diethyl-2-imino-6-oxotetrahydropyrimidin-1(2H)-yl)-N-((lR,2R)-2-hydroxy-2,3-dihydro-1H-inden-1-yl)-3-methoxychromane-6-carboxamide], the midpoint of the response, the EC50, lay at 0.5 nM.
Consider `CCC1(CC)CC(=O)N([C@@H]2CCOc3ccc(C(=O)NC4c5c(OC)cccc5OCC4(C)O)cc32)C(=N)N1` (single isomer, unassigned) [Example 259C], for which the EC50 (commonly the concentration needed to bring the measured effect to its halfway point) worked out at 3.6 nM.
`CCOC(=O)C1(C)Oc2ccccc2C1NC(=O)c1ccc2c(c1)[C@H](N1C(=N)NC(CC)(CC)CC1=O)CCO2` (single isomer, unassigned) [Example 65B] had an EC50 of 2.6 nM.
On the same count and under the same terms, with `CCC1(CC)CC(=O)N([C@@H]2CCOc3ccc(C(=O)NC4c5ccccc5CC4(O)C(F)(F)F)cc32)C(=N)N1` (single isomer, unassigned) [Example 272C] the figure was 0.9 nM; with `CCC1(CC)CC(=O)N([C@@H]2CCOc3ccc(C(=O)NC4c5ccc(OC)cc5OCC4(C)O)cc32)C(=N)N1` (single isomer, unassigned) [Example 258B], 2.4 nM.

The experiment is the same for the next values; noted with them: Plasmodium falciparum, Erythrocyte, 72 h, 0.7% rings, 2% haematocrit, 72 hours at 37° C., LDH readout of parasite growth.
`CCC1(CC)CC(=O)N([C@H]2c3cc(C(=O)N[C@@H]4c5ccccc5OC[C@@]4(C)O)ccc3O[C@@]2(C)COC)C(=N)N1` [Example 281, (2R,3S)-3-(4,4-diethyl-2-imino-6-oxo-hexahydropyrimidin-1-yl)-N-[(3S,4R)-3-hydroxy-3-methyl-chroman-4-yl]-2-(methoxymethyl)-2-methyl-3H-benzofuran-5-carboxamide] displayed a 50% effective concentration (EC50) of 1.1 nM.
Turning to `CCC1(CC)CC(=O)N([C@@H]2CCOc3ccc(C(=O)N[C@@H]4c5cc(F)ccc5OC[C@H]4O)cc32)C(=N)N1` [Example 191, (4R)-4-(4,4-diethyl-2-imino-6-oxo-hexahydropyrimidin-1-yl)-N-[(3S,4R)-6-fluoro-3-hydroxy-chroman-4-yl]chromane-6-carboxamide], the EC50 is 2.6 nM.
`CCC1(CC)CC(=O)N(C2c3cc(C(=O)N[C@H]4CC(C)(C)Oc5ccccc54)ccc3OCC2O)C(=N)N1` (stereo partly drawn) [Example 207, 4-(4,4-diethyl-2-imino-6-oxo-hexahydropyrimidin-1-yl)-N-[(4S)-2,2-dimethylchroman-4-yl]-3-hydroxy-chromane-6-carboxamide] showed an EC50 of 22 nM.
The same measure, in the same setting: next, `CCC1(CC)CC(=O)N([C@@H]2C[C@H](OC)c3ccc(C(=O)N[C@@H]4c5ccccc5OC(C)(C)[C@H]4O)cc32)C(=N)N1` [Example 239, (1S,3R)-3-(4,4-diethyl-2-imino-6-oxo-hexahydropyrimidin-1-yl)-N-[(3S,4R)-3-hydroxy-2,2-dimethyl-chroman-4-yl]-1-methoxy-indane-5-carboxamide]: 0.9 nM; `CCC1(CC)CC(=O)N([C@@H]2CCOc3ccc(C(=O)N[C@@H](C)c4ccccc4)cc32)C(=N)N1` [Example 4A, (R)-4-(4,4-diethyl-2-imino-6-oxotetrahydropyrimidin-1(2H)-yl)-N-((S)-1-phenylethyl)chromane-6-carboxamide]: 87 nM.
Take `CC[C@]1(C)CC(=O)N(C2c3cc(C(=O)N[C@@H]4c5ccccc5OC(C)(C)[C@H]4O)ccc3OCC2(C)C)C(=N)N1` (stereo partly drawn) [Example 243, 4-[(4R)-4-ethyl-2-imino-4-methyl-6-oxo-hexahydropyrimidin-1-yl]-N-[(3S,4R)-3-hydroxy-2,2-dimethyl-chroman-4-yl]-3,3-dimethyl-chromane-6-carboxamide]: the EC50 worked out at 6.1 nM.
Same read-out and setting: next, `CC[C@]1(C)CC(=O)N([C@@H]2c3cc(C(=O)N[C@@H]4c5ccccc5OC(C)(C)[C@H]4O)ccc3C[C@H]2C)C(=N)N1` [Example 167, (2R,3S)-3-[(4R)-4-ethyl-2-imino-4-methyl-6-oxo-hexahydropyrimidin-1-yl]-N-[(3S,4R)-3-hydroxy-2,2-dimethyl-chroman-4-yl]-2-methyl-indane-5-carboxamide]: 250 nM; `CC1(C)CC(=O)N([C@@H]2CC(C)(C)Oc3ccc(C(=O)N[C@@H]4c5ccccc5CC4(C)O)cc32)C(=N)N1` (single isomer, unassigned) [Example 54A]: 190 nM.
`CC[C@]1(C)CC(=O)N(C2c3cc(C(=O)N[C@@H]4c5ccccc5OC[C@@]4(C)O)ccc3OCC2OC)C(=N)N1` (stereo partly drawn) [Example 218, 4-[(4R)-4-ethyl-2-imino-4-methyl-6-oxo-hexahydropyrimidin-1-yl]-N-[(3S,4R)-3-hydroxy-3-methyl-chroman-4-yl]-3-methoxy-chromane-6-carboxamide] registered an EC50 of 64 nM.
On the same count and under the same terms, with `COCC1(C)CC(N2C(=N)NC(C)(C)CC2=O)c2cc(C(=O)N[C@@H]3c4ccccc4C[C@H]3O)ccc2O1` (stereo partly drawn) [Example 175, N-[(1R,2R)-2-hydroxyindan-1-yl]-4-(2-imino-4,4-dimethyl-6-oxo-hexahydropyrimidin-1-yl)-2-(methoxymethyl)-2-methyl-chromane-6-carboxamide] the figure was 31 nM.
The same measure, in the same setting: with `CCC1(CC)CC(=O)N([C@@H]2C[C@@H](OC)c3ccc(C(=O)N[C@@H]4c5ccccc5C[C@H]4O)cc32)C(=N)N1` [Example 115, (1R,3R)-3-(4,4-diethyl-2-imino-6-oxo-hexahydropyrimidin-1-yl)-N-[(1R,2R)-2-hydroxyindan-1-yl]-1-methoxy-indane-5-carboxamide] the figure was 3.6 nM; with `CC1(C)CC(=O)N([C@@H]2CC(C)(C)c3ccc(C(=O)N[C@H]4CC(C)(C)Oc5ccccc54)cc32)C(=N)N1` [Example 113, (3R)-N-[(4S)-2,2-dimethylchroman-4-yl]-3-(2-imino-4,4-dimethyl-6-oxo-hexahydropyrimidin-1-yl)-1,1-dimethyl-indane-5-carboxamide], 16.4 nM; with `CCC1(CC)CC(=O)N([C@@H]2C[C@H](OC)c3ccc(C(=O)N[C@@H]4c5ccccc5C[C@@]4(C)O)cc32)C(=N)N1` [Example 158, (1S,3R)-3-(4,4-diethyl-2-imino-6-oxo-hexahydropyrimidin-1-yl)-N-[(1R,2R)-2-hydroxy-2-methyl-indan-1-yl]-1-methoxy-indane-5-carboxamide], 0.9 nM.
In turn, `CCC1(CC)CC(=O)N([C@@H]2CCOc3ccc(C(=O)N[C@@H]4c5cc(Br)ccc5OC(C)(C)[C@H]4O)cc32)C(=N)N1` [Example 15A, (R)-N-((3S,4R)-6-bromo-3-hydroxy-2,2-dimethylchroman-4-yl)-4-(4,4-diethyl-2-imino-6-oxotetrahydropyrimidin-1(2H)-yl)chromane-6-carboxamide] came in with a concentration for a half-maximal effect (EC50) of 0.3 nM.
As for `CC1(C)CC(=O)N(C2c3cc(C(=O)N[C@H]4CC(C)(C)Oc5ccccc54)ccc3OCC2O)C(=N)N1` (stereo partly drawn) [Example 144, N-[(4S)-2,2-dimethylchroman-4-yl]-3-hydroxy-4-(2-imino-4,4-dimethyl-6-oxo-hexahydropyrimidin-1-yl)chromane-6-carboxamide], a half-maximal effect (EC50) was put at 194 nM.
The same measure, in the same setting: with `CCC1(CC)CC(=O)N([C@@H]2CCOc3ccc(C(=O)N[C@@H]4c5ccccc5C5(CC5)[C@H]4O)cc32)C(=N)N1` [Example 154, (4R)-4-(4,4-diethyl-2-imino-6-oxo-hexahydropyrimidin-1-yl)-N-[(1′R,2′R)-2′-hydroxyspiro[cyclopropane-1,3′-indane]-1′-yl]chromane-6-carboxamide] the figure was 0.7 nM; with `CC[C@]1(C)CC(=O)N([C@@H]2C[C@@H](C)c3ccc(C(=O)N[C@@H]4c5ccccc5C[C@]4(C)O)cc32)C(=N)N1` [Example 96, (1R,3R)-3-[(4R)-4-ethyl-2-imino-4-methyl-6-oxo-hexahydropyrimidin-1-yl]-N-[(1R,2S)-2-hydroxy-2-methyl-indan-1-yl]-1-methyl-indane-5-carboxamide], 6.5 nM; with `CC1(C)CC(=O)N(C2c3cc(C(=O)N[C@H]4CC(C)(C)Oc5ccccc54)ccc3OC2(C)C)C(=N)N1` (stereo partly drawn) [Example 134, N-[(4S)-2,2-dimethylchroman-4-yl]-3-(2-imino-4,4-dimethyl-6-oxo-hexahydropyrimidin-1-yl)-2,2-dimethyl-3H-benzofuran-5-carboxamide], 8.8 nM.
Still for that read-out and setting: with `CCC1(CC)CC(=O)N([C@H]2c3cc(C(=O)N[C@@H]4c5ccccc5CC[C@H]4O)ccc3O[C@@]2(C)COC)C(=N)N1` [Example 249, (2R,3S)-3-(4,4-diethyl-2-imino-6-oxo-hexahydropyrimidin-1-yl)-N-[(1R,2R)-2-hydroxytetralin-1-yl]-2-(methoxymethyl)-2-methyl-3H-benzofuran-5-carboxamide] the figure was 1.1 nM; with `CCC1(CC)CC(=O)N([C@@H]2CCc3ccc(C(=O)N[C@@H]4c5ccccc5C[C@H]4O)cc32)C(=N)N1` [Example 85, (3R)-3-(4,4-diethyl-2-imino-6-oxo-hexahydropyrimidin-1-yl)-N-[(1R,2R)-2-hydroxyindan-1-yl]indane-5-carboxamide], 10.7 nM; with `CCC1(CC)CC(=O)N([C@@H]2CC(COC)Oc3ccc(C(=O)N[C@@H]4c5ccccc5OC(C)(C)[C@H]4O)cc32)C(=N)N1` (stereo partly drawn) [Example 18A, (4R)-4-(4,4-diethyl-2-imino-6-oxotetrahydropyrimidin-1(2H)-yl)-N-((3S,4R)-3-hydroxy-2,2-dimethylchroman-4-yl)-2-(methoxymethyl)chromane-6-carboxamide], 0.8 nM.
The same measure, in the same setting: with `CCC1(CC)CC(=O)N([C@@H]2CCOc3ccc(C(=O)N[C@@H]4c5cc(Cl)ccc5OC(C)(C)[C@H]4O)cc32)C(=N)N1` [Example 19A, (R)-N-((3S,4R)-6-chloro-3-hydroxy-2,2-dimethylchroman-4-yl)-4-(4,4-diethyl-2-imino-6-oxotetrahydropyrimidin-1(2H)-yl)chromane-6-carboxamide] the figure was 0.3 nM.

Source of the values: patent publication US12350270B2, “Antimalarial agents” (Merck Sharp & Dohme LLC, priority 2019, dated 2025).
